Each structure is given as a SMILES string.

In general, inhibition in vivo refers to the change of the read-out against control, counted positive when it falls. Broadly, the ED50 is the dose that gives a 50% effect, or the effect in half of the subjects.

Data set [1] is described as follows: Toxicity in rat assessed as bleeding time by measuring ratio of ED200 to ED50 ratio by tail cutting assay. Particulars: in vivo.
Data set [2] in a line: Stability in human plasma assessed as compound remaining measured at 120 mins relative to control. Format: ADME, cell-free. Particulars: read-out: Stability.
A short description of data set [3]: Toxicity in beagle dog assessed as emesis at 100 mg/kg/day oral gavage observed for 14 days. It is filed as organism-based, Canis lupus familiaris. To be noted: in vivo, 336 h, time 14 day.
Data set [4] is described as follows: Stability in human plasma assessed as compound remaining measured at 240 mins relative to control. Format: ADME, cell-free. Particulars: read-out: Stability.
The nature of data set [5]: Stability in human plasma assessed as compound remaining measured at 5 mins relative to control. It is filed as ADME, cell-free. Particulars: read-out: Stability.
Data set [6] is described as follows: Toxicity in beagle dog assessed as ALP level at 100 to 300 mg/kg/day oral gavage observed for 14 days. To be noted: in vivo, 336 h, dose 100-300 mg/kg/day, time 14 day. Format: organism-based, Canis lupus familiaris.
Data set [7] can be described thus: Stability in human plasma assessed as compound remaining measured at 60 mins relative to control. It is filed as ADME, cell-free. Particulars: read-out: Stability.
Data set [8] can be described thus: Stability in human plasma assessed as compound remaining measured at 300 mins relative to control. It is filed as ADME, cell-free. Particulars: read-out: Stability.
A short description of data set [9]: Toxicity in beagle dog assessed as vomiting at 100 to 300 mg/kg/day oral gavage observed for 14 days. It is filed as organism-based, Canis lupus familiaris. To be noted: in vivo, 336 h, dose 100-300 mg/kg/day, time 14 day.
Data set [10] relates to Rattus norvegicus. The data set is described as follows: Anti-platelet activity against ADP-induced platelet aggregation in rat assessed as inhibition of platelet aggregation at 1 mg/kg relative to control. Format: functional.
Data set [11] can be described thus: Toxicity in beagle dog assessed as dilated pupil at 100 to 300 mg/kg/day oral gavage observed for 14 days. Particulars: in vivo, 336 h, dose 100-300 mg/kg/day, time 14 day. Format: organism-based, Canis lupus familiaris.
The nature of data set [12]: Stability in human plasma assessed as compound remaining measured at 150 mins relative to control. Format: ADME, cell-free. Particulars: read-out: Stability.
Data set [13] concerns Rattus norvegicus. Kind of data set: Anti-platelet activity against ADP-induced platelet aggregation in rat assessed as inhibition of platelet aggregation at 0.5 mg/kg relative to control. It is filed as functional.
The nature of data set [14]: Stability in human plasma assessed as compound remaining measured at 45 mins relative to control. It is filed as ADME, cell-free. To be noted: read-out: Stability.
The test system of data set [15] is Rattus norvegicus. The data set is described as follows: Inhibition of thrombosis in anteriovenous bypassed rat at 30 mg/kg relative to control. It is filed as functional.
In data set [16] the test system is Rattus norvegicus. The data set is described as follows: Inhibition of thrombosis in anteriovenous bypassed rat at 10 mg/kg relative to control. It is filed as functional.
The nature of data set [17]: Stability in human plasma assessed as compound remaining measured at 30 mins relative to control. Particulars: read-out: Stability. It is filed as ADME, cell-free.
The subject of data set [18] is Rattus norvegicus. Kind of data set: Inhibition of thrombosis in anteriovenous bypassed rat at 3 mg/kg relative to control. Format: functional.
Data set [19] is described as follows: Stability in human plasma assessed as compound remaining measured at 90 mins relative to control. Format: ADME, cell-free. To be noted: read-out: Stability.
The subject of data set [20] is Rattus norvegicus. The data set is described as follows: Anti-platelet activity against ADP-induced platelet aggregation in rat assessed as inhibition of platelet aggregation at 2 mg/kg relative to control. It is filed as functional.
Data set [21] in a line: Toxicity in beagle dog assessed as decrease in platelet aggregation at 100 mg/kg/day oral gavage observed for 14 days. Format: organism-based, Canis lupus familiaris. Particulars: in vivo, 336 h, time 14 day.
Data set [22] in a line: Stability in human plasma assessed as compound remaining measured at 180 mins relative to control. Particulars: read-out: Stability. Format: ADME, cell-free.
The nature of data set [23]: Toxicity in beagle dog assessed as mydriasis at 100 mg/kg/day oral gavage observed for 14 days. It is filed as organism-based, Canis lupus familiaris. To be noted: in vivo, 336 h, time 14 day.
Data set [24] can be described thus: Toxicity in rat assessed as bleeding time by tail cutting assay. To be noted: in vivo.
The nature of data set [25]: Toxicity in beagle dog assessed as abnormality in blood and biochemical index at 2000 mg/kg oral gavage observed for 14 days. Format: organism-based, Canis lupus familiaris. Particulars: in vivo, 336 h, time 14 day.
Data set [26] can be described thus: Toxicity in beagle dog assessed as electrocardiogram at 100 to 300 mg/kg/day oral gavage observed for 14 days. It is filed as organism-based, Canis lupus familiaris. Particulars: in vivo, 336 h, dose 100-300 mg/kg/day, time 14 day.
Data set [27] in a line: Toxicity in beagle dog assessed as swelling of hepatocyte at 100 mg/kg/day oral gavage observed for 14 days. Format: organism-based, Canis lupus familiaris. To be noted: hepatocytes, 336 h, time 14 day.
The nature of data set [28]: Toxicity in beagle dog assessed as increase in liver weight at 100 mg/kg/day oral gavage observed for 14 days. To be noted: in vivo, 336 h, time 14 day. Format: organism-based, Canis lupus familiaris.
Data set [29] in a line: Toxicity in beagle dog assessed as ALT level at 100 to 300 mg/kg/day oral gavage observed for 14 days. It is filed as organism-based, Canis lupus familiaris. To be noted: in vivo, 336 h, dose 100-300 mg/kg/day, time 14 day.
Data set [30] can be described thus: Toxicity in beagle dog assessed as electrocardiogram at 2000 mg/kg oral gavage observed for 14 days. It is filed as organism-based, Canis lupus familiaris. To be noted: in vivo, 336 h, time 14 day.
A short description of data set [31]: Stability in human plasma assessed as compound remaining measured at 360 mins relative to control. Particulars: read-out: Stability. It is filed as ADME, cell-free.
For data set [32], the species on record is Rattus norvegicus. Kind of data set: Inhibition of thrombosis in anteriovenous bypassed rat. Format: functional.
Data set [33] in a line: Stability in human plasma assessed as compound remaining measured at 10 mins relative to control. To be noted: read-out: Stability. It is filed as ADME, cell-free.
Data set [34] can be described thus: Toxicity in beagle dog assessed as increase in ALP at 100 mg/kg/day oral gavage observed for 14 days. It is filed as organism-based, Canis lupus familiaris. To be noted: in vivo, 336 h, time 14 day.
Data set [35] in a line: Toxicity in beagle dog assessed as death at 2000 mg/kg oral gavage observed for 14 days. Format: organism-based, Canis lupus familiaris. Particulars: in vivo, 336 h, time 14 day.
Data set [36] in a line: Stability in human plasma assessed as compound remaining measured at 20 mins relative to control. To be noted: read-out: Stability. Format: ADME, cell-free.
Data set [37] can be described thus: Toxicity in beagle dog assessed as abnormality in blood and biochemical index at 100 to 300 mg/kg/day oral gavage observed for 14 days. It is filed as organism-based, Canis lupus familiaris. To be noted: in vivo, 336 h, dose 100-300 mg/kg/day, time 14 day.
The subject of data set [38] is Rattus norvegicus. The data set is described as follows: Inhibition of thrombosis in anteriovenous bypassed rat at 1 mg/kg relative to control. It is filed as functional.
Data set [39] relates to Rattus norvegicus. The data set is described as follows: Anti-platelet activity against ADP-induced platelet aggregation in rat assessed as inhibition of platelet aggregation at 4 mg/kg relative to control. Format: functional.
For data set [40], the species on record is Rattus norvegicus. Kind of data set: Anti-platelet activity against ADP-induced platelet aggregation in rat assessed as inhibition of platelet aggregation. Format: functional.
For data set [41], the system named is Rattus norvegicus. Kind of data set: Anti-platelet activity against ADP-induced platelet aggregation in rat assessed as inhibition of platelet aggregation at 8 mg/kg relative to control. It is filed as functional.

Regarding `C/C=C/C(=O)Oc1cc2c(s1)CCN([C@H](C(=O)OC)c1ccccc1Cl)C2`, the selectivity ratio in [1] came to 1.97. In data set [2], the remaining at 2 h is 1.7%. For the same molecule, the Activity result in data set [3] is “Toxic”; in [6], “Non-Toxic”; in data set [9], “Non-Toxic”; in data set [11], “Non-Toxic”; in data set [21], “Toxic”; in [23], “Toxic”. For the same molecule, the Activity result in [25] is listed as “Non-Toxic”; in [26], “Non-Toxic”; in data set [27], “Toxic”; in [28] it was “Toxic”; in data set [29], “Non-Toxic”; in data set [30], “Non-Toxic”. In addition, the Activity entry is reported as “Toxic” in [34], “Non-Toxic” in [35] and “Non-Toxic” in [37]. The remaining at 4 h in [4] was determined as 0%. The remaining at 5 min in data set [5] was found to be 91.7%. The remaining at 1 h in [7] turned out to be 18.3%. The remaining at 5 h in data set [8] amounted to 0%. In addition, the inhibition in vivo at 1 mg/kg in data set [10] is 50.2%; in data set [38], 18.3%. For the same molecule, the remaining at 2.5 h in [12] was 0.588%. Moreover, in data set [13], the inhibition in vivo at 0.5 mg/kg came to 22.4%. The remaining at 0.75 h in data set [14] turned out to be 28%. The same molecule showed an inhibition in vivo at 30 mg/kg in [15] of 64.2%. Moreover, the inhibition in vivo at 10 mg/kg in data set [16] came to 56%. In addition, the remaining at 0.5 h in data set [17] stood at 44.7%. Besides, the inhibition in vivo at 3 mg/kg in data set [18] came out at 43.2%. In data set [19], the remaining at 1.5 h stood at 5.49%. The inhibition in vivo at 2 mg/kg in [20] was 77%. In data set [22], the remaining at 3 h worked out at 0.231%. The ED200 in [24] came to 1.977 mg/kg. The remaining at 6 h in data set [31] was 0%. Also, the ED50 in data set [32] amounted to 11.8 mg/kg. The remaining at 10 min in data set [33] was determined as 82.3%. The remaining at 20 min in [36] turned out to be 60.5%.
Regarding `CCC/C=C/C(=O)Oc1cc2c(s1)CCN([C@H](C(=O)OC)c1ccccc1Cl)C2`, in data set [10], the inhibition in vivo at 1 mg/kg stood at 52.8%. Also, the inhibition in vivo at 0.5 mg/kg in data set [13] was 19.5%. For the same molecule, the inhibition in vivo at 2 mg/kg in data set [20] is 74.3%.
On to `CC/C=C/C(=O)Oc1cc2c(s1)CCN([C@H](C(=O)OC)c1ccccc1Cl)C2`, for which the inhibition in vivo at 1 mg/kg in data set [10] came to 38.2%. Besides, the inhibition in vivo at 0.5 mg/kg in data set [13] came out at 26.2%. Further, the inhibition in vivo at 4 mg/kg in data set [39] was 78.4%. In addition, the inhibition in vivo at 2 mg/kg in data set [20] turned out to be 62.9%. Moreover, the ED50 in [40] is 1.23 mg/kg. The inhibition in vivo at 8 mg/kg in data set [41] came out at 100%.
